Laboratory results reported in ChEMBL document CHEMBL3407402, “Nintedanib: from discovery to the clinic” (J Med Chem, 2015).
Blank lines part the entries; values can stand above or below the molecule they belong to.

Assays:
[1] = Cmax in CD1 mouse at 50 mg/kg, po; assay type: ADME, organism-based; parameters: dose 50 mg/kg, route oral; details: in vivo
[2] = Half life in CD1 mouse at 50 mg/kg, po; assay type: ADME, organism-based; parameters: dose 50 mg/kg, route oral; details: in vivo
[3] = AUC in CD1 mouse at 50 mg/kg, po; assay type: ADME, organism-based; parameters: dose 50 mg/kg, route oral; details: plasma
in vivo = details: rhesus monkey, iv, 5 mg/kg
Description: Half life in Rhesus monkey at 5 mg/kg, iv

[4] = AUC in Wistar rat at 50 mg/kg, po; assay type: ADME, organism-based; parameters: dose 50 mg/kg, route oral; details: plasma
clinical = details: male, human, in vivo
Description: Terminal half life in healthy male

[5] = Cmax in Rhesus monkey at 40 mg/kg, po; assay type: ADME, organism-based, Macaca mulatta; parameters: dose 40 mg/kg, route oral; details: in vivo
Rattus norvegicus [6] = assay: Half life in Wistar rat at 2 mg/kg, iv; assay type: ADME, organism-based; parameters: dose 2 mg/kg, route intravenous; details: in vivo
[7] = Cmax in Rhesus monkey at 5 mg/kg, iv; assay type: ADME, organism-based, Macaca mulatta; parameters: dose 5 mg/kg, route intravenous; details: in vivo
[8] = Drug excretion in healthy male after 24 to 48 hrs; assay type: ADME, organism-based; details: human, in vivo, read-out: Drug excretion
[9] = Drug excretion in healthy male via biliary system into feces over 120 hrs; assay type: ADME, tissue-based; details: human, faeces, read-out: Drug excretion
[10] = Cmax in Wistar rat at 2 mg/kg, iv; assay type: ADME, organism-based; parameters: dose 2 mg/kg, route intravenous; details: in vivo
[11] = Cmax in cynomolgus monkey at 40 mg/kg, po; assay type: ADME, organism-based, Macaca fascicularis; parameters: dose 40 mg/kg, route oral; details: in vivo
[12] = Drug excretion in healthy male urine/feces after 96 hrs; assay type: ADME, tissue-based; details: human, urine and faeces, read-out: Drug excretion
[13] = Inhibition of VEGF-stimulated HSMEC cell proliferation; assay type: functional; details: Homo sapiens
[14] = Mean residence time in Cynomolgus monkey at 5 mg/kg, iv; assay type: ADME, organism-based, Macaca fascicularis; parameters: dose 5 mg/kg, route intravenous; details: in vivo
[15] = Oral bioavailability in Cynomolgus monkey at 40 mg/kg; assay type: ADME, organism-based, Macaca fascicularis; details: in vivo
[16] = Volume of distribution at steady state in Cynomolgus monkey at 5 mg/kg, iv; assay type: ADME, organism-based, Macaca fascicularis; parameters: dose 5 mg/kg, route intravenous; details: in vivo, read-out: Vdss
[17] = Oral bioavailability in Rhesus monkey at 40 mg/kg; assay type: ADME, organism-based, Macaca mulatta; details: in vivo
[18] = Clearance in Cynomolgus monkey at 5 mg/kg, iv; assay type: ADME, organism-based, Macaca fascicularis; parameters: dose 5 mg/kg, route intravenous; details: in vivo
[19] = AUC in Cynomolgus monkey at 5 mg/kg, iv; assay type: ADME, organism-based, Macaca fascicularis; parameters: dose 5 mg/kg, route intravenous; details: plasma
[20] = Cmax in Wistar rat at 50 mg/kg, po; assay type: ADME, organism-based; parameters: dose 50 mg/kg, route oral; details: in vivo
[21] = Oral bioavailability in Wistar rat at 50 mg/kg; assay type: ADME, organism-based; details: in vivo
[22] = Cmax in Cynomolgus monkey at 5 mg/kg, iv; assay type: ADME, organism-based, Macaca fascicularis; parameters: dose 5 mg/kg, route intravenous; details: in vivo
[23] = AUC in Cynomolgus monkey at 40 mg/kg, po; assay type: ADME, organism-based, Macaca fascicularis; parameters: dose 40 mg/kg, route oral; details: plasma
[24] = Drug excretion in healthy male urine after 72 hrs; assay type: ADME, tissue-based; details: human, read-out: Drug excretion
[25] = Half life in Cynomolgus monkey at 5 mg/kg, iv; assay type: ADME, organism-based, Macaca fascicularis; parameters: dose 5 mg/kg, route intravenous; details: in vivo
Rattus norvegicus [26] = assay: Mean residence time in Wistar rat at 2 mg/kg, iv; assay type: ADME, organism-based; parameters: dose 2 mg/kg, route intravenous; details: in vivo
[27] = Mean residence time in Rhesus monkey at 5 mg/kg, iv; assay type: ADME, organism-based, Macaca mulatta; parameters: dose 5 mg/kg, route intravenous; details: in vivo
[28] = Antitumor activity against human H460 cells in xenograft model assessed as tumor growth inhibition ratio; assay type: functional, NCI-H460
[29] = AUC in Wistar rat at 2 mg/kg, iv; assay type: ADME, organism-based; parameters: dose 2 mg/kg, route intravenous; details: plasma
[30] = Clearance in Rhesus monkey at 5 mg/kg, iv; assay type: ADME, organism-based, Macaca mulatta; parameters: dose 5 mg/kg, route intravenous; details: in vivo
[31] = Volume of distribution at steady state in Rhesus monkey at 5 mg/kg, iv; assay type: ADME, organism-based, Macaca mulatta; parameters: dose 5 mg/kg, route intravenous; details: in vivo, read-out: Vdss
[32] = AUC in Rhesus monkey at 5 mg/kg, iv; assay type: ADME, organism-based, Macaca mulatta; parameters: dose 5 mg/kg, route intravenous; details: plasma
[33] = AUC in Rhesus monkey at 40 mg/kg, po; assay type: ADME, organism-based, Macaca mulatta; parameters: dose 40 mg/kg, route oral; details: plasma
[34] = Clearance in Wistar rat at 2 mg/kg, iv; assay type: ADME, organism-based; parameters: dose 2 mg/kg, route intravenous; details: in vivo
[35] = Mean residence time in CD1 mouse at 50 mg/kg, po; assay type: ADME, organism-based; parameters: dose 50 mg/kg, route oral; details: in vivo

- Cmax [1]: 547 ng/mL
- half-life [2]: 5.15 h
- AUC [3]: 2720 ng·h/mL
- half-life (in vivo): 7.09 h
- AUC [4]: 375 ng·h/mL
- half-life (clinical): 13 h
- Cmax [5]: 311 ng/mL
- t1/2 (Rattus norvegicus [6]): 3.95 h
- Cmax [7]: 1090 ng/mL
- dose excreted [8]: 56.3%
- dose excreted at 120 h [9]: 93.4%
- Cmax [10]: 124 ng/mL
- Cmax [11]: 175 ng/mL
- dose excreted at 96 h [12]: 92.4%
- MRT [14]: 3.82 h
- bioavailability [15]: 13.2%
- Vd [16]: 8.64 L/kg
- bioavailability [17]: 23.8%
- clearance [18]: 37.5 mL/min/kg
- AUC [19]: 2260 ng·h/mL
- Cmax [20]: 105 ng/mL
- bioavailability [21]: 11.9%
- Cmax [22]: 1300 ng/mL
- AUC [23]: 2390 ng·h/mL
- dose excreted at 72 h [24]: 0.7%
- half-life [25]: 5.95 h
- MRT (Rattus norvegicus [26]): 3.25 h
- MRT [27]: 5.7 h
- AUC [29]: 181 ng·h/mL
- clearance [30]: 30.2 mL/min/kg
- Vd [31]: 10.4 L/kg
- AUC [32]: 2830 ng·h/mL
- AUC [33]: 4440 ng·h/mL
- clearance [34]: 202 mL/min/kg
- MRT [35]: 5.19 h
SMILES: CCS(=O)(=O)O.COC(=O)c1ccc2c(c1)NC(=O)/C2=C(\Nc1ccc(N(C)C(=O)CN2CCN(C)CC2)cc1)c1ccccc1 [NINTEDANIB ESYLATE]
- EC50 [13]: < 0.01 µM
- TGI [28]: 75%

SMILES: CC(=O)O[C@@]12CO[C@@H]1C[C@H](O)[C@@]1(C)C(=O)[C@H](O)C3=C(C)[C@@H](OC(=O)[C@H](O)[C@@H](NC(=O)OC(C)(C)C)c4ccccc4)C[C@@](O)([C@@H](OC(=O)c4ccccc4)[C@H]21)C3(C)C.O.O.O [DOCETAXEL]
- TGI [28]: 66%
